Molecular target: T1, ITK (Mus musculus, UniProt Q03526)
T1 construct: mice were sacrificed and splenocytes were isolated and used to prepare protein lysates; from tissue; host or cells: mouse splenocytes (spleen) after oral dosing
T1 sequence (Q03526 1-625): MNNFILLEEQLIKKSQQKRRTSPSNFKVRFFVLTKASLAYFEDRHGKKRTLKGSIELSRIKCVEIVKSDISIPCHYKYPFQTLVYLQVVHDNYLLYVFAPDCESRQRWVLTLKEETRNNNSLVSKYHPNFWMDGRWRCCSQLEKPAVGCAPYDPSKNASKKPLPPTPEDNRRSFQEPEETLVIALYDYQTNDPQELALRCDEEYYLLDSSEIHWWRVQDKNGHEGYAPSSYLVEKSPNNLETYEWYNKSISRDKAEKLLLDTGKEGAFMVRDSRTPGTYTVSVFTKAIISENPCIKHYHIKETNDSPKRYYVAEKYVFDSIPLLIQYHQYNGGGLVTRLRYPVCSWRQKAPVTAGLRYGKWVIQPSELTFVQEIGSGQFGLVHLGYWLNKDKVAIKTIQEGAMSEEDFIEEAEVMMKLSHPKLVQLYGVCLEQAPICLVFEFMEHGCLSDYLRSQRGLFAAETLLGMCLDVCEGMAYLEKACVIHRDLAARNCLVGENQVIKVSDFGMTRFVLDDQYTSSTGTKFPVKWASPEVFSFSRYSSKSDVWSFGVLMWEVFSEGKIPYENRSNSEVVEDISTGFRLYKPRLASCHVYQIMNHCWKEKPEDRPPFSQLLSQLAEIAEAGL
Test: Mouse PD assay for ITK degradation (Western blot, splenocytes after oral administration)
Format: in vivo
Details: percent ITK remaining in mouse splenocytes relative to vehicle, 90 mpk PO, 6 h
Method in brief: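 Mice dosed orally, some compounds at 90 mg/kg; splenocytes harvested after 6 hours (some 24 hours). ITK measured by Western blot of equal-protein lysates, normalized to actin. Values are % ITK remaining relative to vehicle-control mean.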

With C[C@@]12Cc3[nH]nc(C(=O)Nc4cnn(CC5CN(C(=O)C6CN(c7ccc(C8CCC(=O)NC8=O)cn7)C6)C5)c4)c3C[C@@H]1C2(F)F (stereo partly drawn) [Compound 49, (4aS,5aR)-N-(1-((1-(1-(5-(2,6-dioxopiperidin-3-yl)pyridin-2-yl)azetidine-3-carbonyl)azetidin-3-yl)methyl)-1H-pyrazol-4-yl)-5,5-difluoro-5a-methyl-1,4,4a,5,5a,6-hexahydrocyclopropa[f]indazole-3-carboxamide] the “ITK (%) 90 mpk PO, 6 h” value was 129%.

Cn1c(=O)n([C@@H]2CCC(=O)NC2=O)c2cccc(N3CCC(CN4CCN(C(=O)c5ccc6cc(-c7n[nH]c8c7CCC(C)(C)C8)[nH]c6c5)CC4)CC3)c21 [Compound 48, (R)-3-(4-(4-((4-(2-(6,6-dimethyl-4,5,6,7-tetrahydro-1H-indazol-3-yl)-1H-indole-6-carbonyl)piperazin-1-yl)methyl)piperidin-1-yl)-3-methyl-2-oxo-2,3-dihydro-1H-benzo[d]imidazol-1-yl)piperidine-2,6-dione] was tested, and the “ITK (%) 90 mpk PO, 6 h” value was 35%.

Source: US20240279202A1 (NURIX THERAPEUTICS, INC., priority 2021, published 2024)
